Results as given in patent publication US20190008961A1, “COMPOUNDS AND METHODS FOR INCREASING TUMOR INFILTRATION BY IMMUNE CELLS” (THE BROAD INSTITUTE, INC., priority 2016, published 2019).

Columns and labels:
MSC cells = assay: RSL3 toxicity in the presence of inhibitors of arachidonic acid metabolic enzymes; format: cell-based; settings: for RSL3 mediated cell death in MSCs with soluble epoxide hydrolase inhibitors: FIG. 14, TPPU 20 and 80 μM, AUDA and butyl-AUDA 80 μM; for effect on toxicity of RSL3: increasing amounts of RSL3, FIG. 13
Description: To investigate the role of RSL3's effects on MSC toxicity, MDA-MSC co-cultures were contacted by compounds that were known inhibitors of arachidonic acid metabolic enzymes.

[1] = test system: MSCs and WI-38 fibroblasts; assay: viability, Cell Titer Glo, 72 hours; format: cell-based, human
Protocol: Viability measurements were made to determine whether RSL3 is toxic to MDA cells, MSCs or both. Viability was assessed by seeding cells into 384-well opaque-bottom plates (Corning, Corning N.Y. catalog #3570) then treating them 24 hours later with varying concentrations of RSL3 (added using the pin-transfer instrument CyBi-Well Vario, Cybio, Woburn Mass.) for an additional period of 72 hours. Viable cells remaining after the treatment were quantified using the Cell Titer Glo reagent (Promega, Madison Wis. catalog #G7570) that measures cellular ATP content.

plasma stability, human = format: in vitro ADME
Protocol: (§1) Plasma Stability. Plasma stability was determined at 37° C. at 5 hours in both human and mouse plasma. Each compound was prepared in duplicate at 5 μM in plasma diluted 50/50 (v/v) with PBS pH 7.4 (0.95% acetonitrile, 0.05% DMSO). Compounds were incubated at 37° C. for 5 hours with a 350-rpm orbital shake with time points taken at 0 hours and 5 hours. Samples were analyzed by UPLC-MS (Waters, Milford, Mass.) with compounds detected by SIR detection on a single quadrupole mass spectrometer.

[2] = plasma protein binding by equilibrium dialysis, human; format: in vitro ADME; settings: 5 μM
Protocol: Plasma Protein Binding. Plasma protein binding was determined by equilibrium dialysis using the Rapid Equilibrium Dialysis (RED) device (Pierce Biotechnology, Rockford, Ill.) for both human and mouse plasma. Each compound was prepared in duplicate at 5μM in plasma (0.95% acetonitrile, 0.05% DMSO) and added to one side of the membrane (200 μL) with PBS pH 7.4 added to the other side (350 μL). Compounds were incubated at 37° C. for 5 hours with a 350-rpm orbital shake. After incubation, samples were analyzed by UPLC-MS (Waters, Milford, Mass.) with compounds detected by SIR detection on a single quadrupole mass spectrometer.

plasma stability, mouse = format: in vitro ADME
Protocol: as §1

[3] = microsomal stability, human; format: in vitro ADME
Protocol: (§2) Microsomal Stability. Microsomal stability was determined at 37° C. at 60 minutes in both human and mouse microsomes. Each compound was prepared in duplicate at 1 μM with 0.3 mg/mL microsomes in PBS pH 7.4 (1% DMSO). Compounds were incubated at 37° C. for 60 minutes with a 350-rpm orbital shake with time points taken at 0 minutes and 60 minutes. Samples were analyzed by UPLC-MS (Waters, Milford, Mass.) with compounds detected by SIR detection on a single quadrupole mass spectrometer.

[4] = microsomal stability, mouse; format: in vitro ADME
Protocol: as §2

MSC-shGPX cells = assay: Zileuton rescue of viability in GPX4 knockdown MSCs; format: cell-based; settings: increasing Zileuton
Protocol: In a knockdown GPX4 experiment in MSCs, increasing amounts of Zileuton were added to MSC-shLacZ cells as a control and to MSC-shGPX cells growing in 384-well plates and their viability was measured after 5 days of growth (see FIG. 15).

O=C(O)CCCCCCCCCCCNC(=O)NC12CC3CC(CC(C3)C1)C2 [AUDA]
RSL3 mediated cell death in MSCs with soluble epoxide hydrolase inhibitors (MSC cells): increase in RSL3 mediated cell death

COc1ccc2c(c1)c(CC(=O)O)c(C)n2C(=O)c1ccc(Cl)cc1 [Indomethacin]
effect on toxicity of RSL3 (MSC cells): little impact

CC(C)c1ccc2c(c1)c(SC(C)(C)C)c(CC(C)(C)C(=O)O)n2Cc1ccc(Cl)cc1 [MK886]
effect on toxicity of RSL3 (MSC cells): lessened the toxicity of RSL3

COc1ccc(N(C(=O)CCl)C(C(=O)NCCc2ccccc2)c2cccs2)cc1Cl (stereo not shown) [ML162]
stromal cell death, potency relative to RSL3 [1]: lower potencies than that of RSL3

c1ccc2c(c1)SCc1c-2[nH]c2ccccc12 [PD146176]
effect on toxicity of RSL3 (MSC cells): lessened the toxicity of RSL3

COC(=O)c1ccc([C@@H]2c3[nH]c4ccccc4c3C[C@@H](C(=O)OC)N2C(=O)CCl)cc1 [RSL3]
Plasma Stability (5 h) (plasma stability, human; Human, 37° C., 5 μM): 47%
stability in human plasma, in words (plasma stability, human; human): modest stability
Plasma Binding Protein (5 h) [2]: 98.2%
Plasma Stability (5 h) (plasma stability, mouse; Mouse, 37° C., 5 μM): <1%
stability in murine plasma, in words (plasma stability, mouse; murine): little stability
Liver Microsome Stability (1 h) ([3]; Human, 1 μM, 0.3 mg/mL microsomes): 32.7%
stability in human liver microsomal assay, in words ([3]; human): modest stability
Liver Microsome Stability (1 h) ([4]; Mouse, 1 μM, 0.3 mg/mL microsomes): <1%
stability in murine liver microsomal assay, in words ([4]; murine): little stability
potency in inhibiting viability of stromal cells compared with MDA cancer cells or HUVEC endothelial cells ([1]; 72 hours treatment): > 10 fold

CCC(=O)N1CCC(NC(=O)Nc2ccc(OC(F)(F)F)cc2)CC1 [TPPU]
RSL3 mediated cell death in MSCs with soluble epoxide hydrolase inhibitors (MSC cells): increase in RSL3 mediated cell death
effect on toxicity of RSL3 (MSC cells): enhanced RSL3 effects

CC(c1cc2ccccc2s1)N(O)C(N)=O (stereo not shown) [Zileuton]
rescue of stromal cells from death by GPX4 inhibition (MSC cells): rescued
effect on toxicity of RSL3 (MSC cells): lessened the toxicity of RSL3
amount of MSC-shGPX cells that survived (MSC-shGPX cells; 5 days of growth): increased with higher amounts of Zileuton
viability of control MSC-shLacZ cells (MSC-shGPX cells; FIG. 15): no effect

CCCCS(=N)(=O)CCC(N)C(=O)O (stereo not shown) [buthionine sulfoximine, S-n-butyl homocysteine sulfoximine]
stromal cell death, potency relative to RSL3 [1]: lower potencies than that of RSL3

CCCCOC(=O)CCCCCCCCCCCNC(=O)NC12C[C@H]3C[C@@H](C1)C[C@@H](C2)C3 [butyl-AUDA]
RSL3 mediated cell death in MSCs with soluble epoxide hydrolase inhibitors (MSC cells): increase in RSL3 mediated cell death

COc1cccc2c1C(=O)c1c(O)c3c(c(O)c1C2=O)C[C@@](O)(C(=O)CO)C[C@@H]3O[C@H]1C[C@H](N)[C@H](O)[C@H](C)O1 [doxorubicin]
sensitivity of MSCs and fibroblasts to the drug ([1]; viability, FIG. 4B): did not show enhanced sensitivity

CCOC(=O)c1ccc(NC2CCCCC2)c(N)c1 [ferrostatin]
rescue of stromal cells from death by GPX4 inhibition (MSC cells): rescued
